System: Type-1 diabetic rats
Test: Chronic administration, plasma glucose level in Type-1 diabetic rats
Assay type: in vivo
Conditions: for PGL: INS 1 U/kg i.p. once daily; for % PGL Reduction: INS 1 U/kg i.p., vs respective vehicle control group
Experimental: Experimental studies were performed in animal models (rats) to determine anti-diabetic potential if any (Type 1 and Type 2) of the novel fraction isolated from fenugreek seeds (>70% furostanolic saponins with approximately 30% protodioscin as one of the major fractions).

With Insulin the PGL (0 d) was 527.98 ± 50.31 mg/dL, the PGL (7 d) was 218.33 ± 16.87 mg/dL and the PGL (14 d) was 260.65 ± 22.96 mg/dL. For the same substance, the “% PGL Reduction” value (7 d) was “(56.3%)”, the “% PGL Reduction” value (14 d) was “(48.2%)” and the “% PGL Reduction” value (14 d, listed as insulin) was 48.2%.

From patent US20120071427A1, “NOVEL ANTIDIABETIC FUROSTANOLIC SAPONIN RICH (FSR) FRACTION FROM FENUGREEK SEEDS” (priority 2009, published 2012)
